75 compounds from publication PMC13083723 (Patterns, 2026) can be followed below.

For the experiment, the system named is Vero-E6 cells. The experiment is described as follows: cells. The class given is cell-based. Conditions: for activation at 10 µM: Chlorocebus sabaeus, Vero C1008, 24 h, read-out: PL_Result.

Take `CCN(c1ccccc1)c1cc(NC)[n+](C)c(C)n1` [SPE_K18678457]: the activation at 10 µM is -5.38%.

For the compound `CCC[N+]12C3C[C@H](C4C(O)[C@]5(C[C@@H]41)c1ccccc1N(C)[C@@H]35)[C@H](CC)[C@H]2O` (stereo partly drawn) [SPE_A53539450], the activation at 10 µM is -3.5%.

Turning to `Fc1ccc(CN2CCC(Nc3ccc(C(F)(F)F)nn3)CC2)cc1F` [SPE_K31802667], the activation at 10 µM stood at 4.7%.

Take `O=C(Nc1ccccc1C(=O)Nc1ccc(CCO)cc1)c1ccc([N+](=O)[O-])cc1` [SPE_K81053848]: the activation at 10 µM is -6.64%.

Take `COc1cc(C=O)c([N+](=O)[O-])cc1OC` [SPE_K03564313]: the activation at 10 µM amounted to 2.17%.

`O=C(O)c1cn(-c2ccc(F)cc2)c2cc(N3CCNCC3)c(F)cc2c1=O` [SPE_K08525451]: the activation at 10 µM is -3.13%.

As to `COc1ncc2cc(C(=O)Nc3cc(C(=O)NCc4cccc(Cl)c4)ccc3Cl)c(=O)[nH]c2n1` [SPE_K89517477], the activation at 10 µM was -0.459%.

As to `O=[N+]([O-])c1ncc[nH]1` [SPE_K26824830], the activation at 10 µM was -1.75%.

Turning to `O=C(O)CC(S)C(=O)O` (stereo not drawn) [SPE_A43435802], the activation at 10 µM was found to be 5.6%.

Turning to `Cc1ccc(N2CCN(CCC3NC(=O)c4ccccc43)CC2)cc1C` (stereo not drawn) [SPE_A82013137], the activation at 10 µM was -6.23%.

On to `O=C(O)c1cc(O)c2ccccc2n1` [SPE_K85872723], for which the activation at 10 µM is -13%.

Consider `COc1cc2ncnc(Nc3ccc(F)c(Cl)c3)c2cc1OCCCN1CCOCC1` [SPE_K64052750], for which the activation at 10 µM was -10.1%.

As to `CC1Cc2ccccc2N1NC(=O)c1ccc(Cl)c(S(N)(=O)=O)c1` (stereo not drawn) [SPE_A95869247], the activation at 10 µM was -11.5%.

Regarding `CC(=O)Nc1ccc(C(=O)O)cc1` [SPE_K47195926], the activation at 10 µM came to 3.66%.

Turning to `CC(=O)Nc1cccc(-n2c(=O)n(C3CC3)c(=O)c3c(Nc4ccc(I)cc4F)n(C)c(=O)c(C)c32)c1` [SPE_K12343256], the activation at 10 µM was -1.89%.

For `CCN(CC)CCOCCOC(=O)C1(c2ccccc2)CCCC1` [SPE_K06181161], the activation at 10 µM worked out at 11.3%.

Turning to `Cc1nc(NC(=O)N2CCC[C@H]2C(N)=O)sc1-c1ccnc(C(C)(C)C(F)(F)F)c1` [SPE_K54997624], the activation at 10 µM was determined as 12.6%.

As to `COc1nccnc1NS(=O)(=O)c1ccc(N)cc1` [SPE_K17205817], the activation at 10 µM is -0.746%.

With `CC(=O)c1ccc(S(=O)(=O)NC(=O)NC2CCCCC2)cc1` [SPE_K52960356], the activation at 10 µM amounted to 6.72%.

Turning to `O=C(O)c1ccc(-c2c[nH]c3ncc(-c4ccccc4)cc23)cc1C1CCCC1` [SPE_K14991967], the activation at 10 µM was -4.54%.

Consider `CC(=O)O[C@]1(C(C)=O)CC[C@H]2[C@@H]3CCC4=CC(=O)CCC4=C3[C@@H](c3ccc(N(C)C)cc3)C[C@@]21C` [SPE_K76197012], for which the activation at 10 µM was -4.74%.

As for `CCS(=O)(=O)c1cccc(-c2cc(C(=O)NC3CCN(C)CC3)c(C)c3[nH]c4ncc(C)cc4c23)c1` [SPE_K01683783], the activation at 10 µM was -6.51%.

`CC(C)C[C@H](NC(=O)[C@H](Cc1ccccc1)NC(=O)CNC(=O)[C@H](C)NC(=O)[C@@H](N)Cc1ccc(O)cc1)C(=O)O` [SPE_K57927309] returned a PL_Result of -0.1658.

Turning to `CCCCC/C=C\C/C=C\CCCCCCCC(=O)NCCCC(=O)O` [SPE_K46254452], the activation at 10 µM turned out to be 0.426%.

`O=C(O)c1ccccc1-c1ccc(C(F)(F)F)cc1` [SPE_K99506538]: the activation at 10 µM was 0.609%.

`CCOC(=O)c1ncc2[nH]c3ccc(OCc4ccccc4)cc3c2c1COC` [SPE_K33882852]: the activation at 10 µM was -9.36%.

On to `Nc1ncnc2c1ncn2C1O[C@H](COP(=O)(O)O)[C@@H](O)[C@H]1O` (stereo partly drawn) [SPE_A10111329], for which the activation at 10 µM was -12.1%.

On to `Oc1ccc([C@H]2COc3cc(O)ccc3C2)cc1` [SPE_K54847683], for which the activation at 10 µM is -12.7%.

On to `CC(C)[C@H](CO)Nc1nc(Nc2cccc(Cl)c2)c2ncn(C(C)C)c2n1` [SPE_K50836978], for which the activation at 10 µM is 1.32%.

On to `COc1ccc(CNC(=O)Nc2ncc([N+](=O)[O-])s2)cc1` [SPE_K67860401], for which the activation at 10 µM is -8.12%.

For the compound `CCN(CCCOc1ccc2c(Nc3cc(CC(=O)Nc4cccc(F)c4)[nH]n3)ncnc2c1)CCOP(=O)(O)O` [SPE_K31928526], the activation at 10 µM was -11.2%.

Turning to `COc1cc(N2CCC(O)CC2)ccc1Nc1cc(Nc2ccccc2S(=O)(=O)C(C)C)c2cc[nH]c2n1` [SPE_K94853001], the activation at 10 µM was -4.69%.

For the compound `CC(C)CCCC(C)[C@H]1CCC2C3CC=C4C[C@@H](O)CC[C@]4(C)C3CC[C@@]21C` (stereo partly drawn) [SPE_A42883684], the activation at 10 µM was -4.75%.

For the compound `Cc1ccc(C(=O)Nc2ccc(CN3CCN(C)CC3)c(C(F)(F)F)c2)cc1C#Cc1cnc2[nH]ncc2c1` [SPE_K35329391], the activation at 10 µM was -3.83%.

Consider `CCOC(=O)Nc1ccc2c(c1)N(C(=O)CN(CC)CC)c1ccccc1CC2` [SPE_K24570280], for which the activation at 10 µM stood at 3.49%.

For the compound `CC[N+](CC)(CC)CC(=O)Nc1c(C)cccc1C` [SPE_K56596464], the activation at 10 µM was -0.251%.

With `Cn1cc(C(=O)C(=O)N[C@H]2CN3CCC2CC3)c2ccccc21` [SPE_K20714604], the activation at 10 µM was found to be 10.1%.

For `CC(=O)Nc1ccc(S(=O)(=O)Nc2ccc([N+](=O)[O-])cc2)cc1` [SPE_K76845197], the activation at 10 µM was -3.76%.

With `Nc1nc(=O)[nH]cc1F` [SPE_K82143716], the activation at 10 µM was -8.79%.

Consider `CC(C)c1c(NC(=O)Nc2ccc(Cl)cc2)c(=O)n(-c2ccccc2)n1C` [SPE_K16497916], for which the activation at 10 µM is -9.16%.

`O=C(O)COCCN1CCN(C(c2ccccc2)c2ccc(Cl)cc2)CC1` (stereo not drawn) [SPE_A42571354]: the activation at 10 µM is -3.1%.

Consider `Cc1nc(Nc2ncc(C(=O)Nc3c(C)cccc3Cl)s2)cc(N2CCN(CCO)CC2)n1` [SPE_K49328571], for which the activation at 10 µM was determined as 0.377%.

On to `Cc1cccc(C)c1NC(=O)CN1CCN(CCCC(c2ccc(F)cc2)c2ccc(F)cc2)CC1` [SPE_K62996583], for which the activation at 10 µM was 90.9%.

For `Cc1[nH]c2ccccc2c1CCNCc1ccc(/C=C/C(=O)NO)cc1` [SPE_K02130563], the activation at 10 µM was -9.42%.

In the case of `O=c1c2ccccc2oc2ccccc12` [SPE_K27135764], the activation at 10 µM turned out to be 4.69%.

On to `COc1cc(C(=S)N2CCOCC2)cc(OC)c1OC` [SPE_K29570907], for which the activation at 10 µM is -7.35%.

Turning to `O=C(/C=C/C=C/c1ccc2c(c1)OCO2)N1CCCCC1` [SPE_K59522102], the activation at 10 µM was 2.7%.

As to `COc1ccc(CC2NCCc3cc(OC)c(OC)cc32)cc1OC` (stereo not drawn) [SPE_A91831168], the activation at 10 µM is -15.9%.

Turning to `O=C1NC(O)CCN1[C@@H]1O[C@H](CO)[C@@H](O)[C@H]1O` (stereo partly drawn) [SPE_A86248581], the activation at 10 µM is -8.11%.

In the case of `CN1CCN(c2c(F)cc3c(=O)c(C(=O)O)cn4c3c2SCC4)CC1` [SPE_K62374253], the activation at 10 µM was -11.9%.

In the case of `CNCC(=O)O` [SPE_K51263939], the activation at 10 µM is -0.786%.

In the case of `CCCCCCCCCCCCCCCC(=O)OC(CC(=O)O)C[N+](C)(C)C` (stereo not drawn) [SPE_A77577770], the activation at 10 µM was determined as 3.73%.

Consider `CCOc1c2c(c(OCC)c3ccccc13)C(=O)N(c1ccc(CC(=O)NS(=O)(=O)c3ccccc3)cc1)C2` [SPE_K50005760], for which the activation at 10 µM was -9.22%.

Turning to `Cc1cccc(C)c1NC(=O)c1ccccc1C(=O)O` [SPE_K05724540], the activation at 10 µM was -3.96%.

Turning to `Oc1cc(O)cc(/C=C/c2ccc(O)c(O)c2)c1` [SPE_K91509126], the activation at 10 µM is 9.23%.

Turning to `COc1ccc2c(c1)nc([S+]([O-])Cc1ncc(C)c(OC)c1C)[n]2[Mg][n]1c([S+]([O-])Cc2ncc(C)c(OC)c2C)nc2cc(OC)ccc21` (stereo not drawn) [SPE_A56892734], the activation at 10 µM was -9.5%.

As for `CC(C)(C)NC[C@H](O)c1ccc(O)c(CO)c1` [SPE_K34469523], the activation at 10 µM was -6.61%.

As for `NC1CCN(c2cccnc2)C1` (stereo not drawn) [SPE_A29844814], the activation at 10 µM is -9.03%.

In the case of `O=C(Nc1c(Cl)cncc1Cl)c1ccc(OC(F)F)c(OCC2CC2)c1` [SPE_K03194791], the activation at 10 µM was -2.86%.

In the case of `NCC(CS(=O)(=O)O)c1ccc(Cl)cc1` (stereo not drawn) [SPE_A24122750], the activation at 10 µM is -1.21%.

As to `CC1(C)S[C@@H]2[C@H](NC(=O)C(C(=O)O)c3ccsc3)C(=O)N2[C@H]1C(=O)O` (stereo partly drawn) [SPE_A55051145], the activation at 10 µM was -6.58%.

On to `Oc1cc2c(cc1O)CN(C(=S)NCCc1ccc(Cl)cc1)CCC2` [SPE_K44849676], for which the activation at 10 µM was -5.94%.

Consider `C=CCN1C[C@H](C)N([C@H](c2ccc(C(=O)N(CC)CC)cc2)c2cccc(OC)c2)C[C@H]1C` [SPE_K29546239], for which the activation at 10 µM is 1.37%.

With `COc1ccc(-c2coc3cc(O)cc(O)c3c2=O)cc1` [SPE_K73303757], the activation at 10 µM was -15.6%.

With `CN1Cc2c(C(=O)OC(C)(C)C)ncn2-c2ccsc2C1=O` [SPE_K80778372], the activation at 10 µM was determined as 4.64%.

Regarding `O=C(O)C(Cc1ccccc1)NCc1ccc(Cl)cc1` (stereo not drawn) [SPE_A57806482], the activation at 10 µM stood at 2.25%.

On to `NNC(=O)c1ccncc1` [SPE_K87202646], for which the activation at 10 µM worked out at 0.348%.

In the case of `CCOC(=O)C1=C[C@]2(CC)CCCN3CCc4c(n1c1ccccc41)[C@@H]32` [SPE_K53318339], the activation at 10 µM was -10.5%.

Take `COc1ccccc1N1CCN(CCCCN2C(=O)c3ccccc3C2=O)CC1` [SPE_K69195780]: the activation at 10 µM is -5.05%.

As to `CC(C)(C)C(=O)NCCCC(=O)O` [SPE_K62264492], the activation at 10 µM worked out at 5.19%.

On to `CCc1cc2c(c(CC)n1)CCC(=O)N2Cc1ccc(-c2ccccc2-c2nnn[nH]2)cc1` [SPE_K11373525], for which the activation at 10 µM was -4.91%.

Consider `Cc1c(NC(=O)c2cccnc2)c(=O)n(-c2ccccc2)n1C` [SPE_K47407372], for which the activation at 10 µM was -10.1%.

On to `O=C(O)CCCCN(CCc1ccccc1OCc1ccc(CCc2ccccc2)cc1)Cc1ccc(C(=O)O)cc1` [SPE_K73440166], for which the activation at 10 µM was found to be 2.18%.

On to `Cc1[nH]cnc1CN1CCc2c(c3ccccc3n2C)C1=O` [SPE_K46742498], for which the activation at 10 µM worked out at 6.83%.

As for `O=S(=O)(c1cccc2cnccc12)N1CCNCC1` [SPE_K72462751], the activation at 10 µM was -15.9%.
